{"source": "ChEMBL document CHEMBL4428076", "about": "(J Med Chem, 2016)", "key": {"[1]": {"experiment": "Toxicity in CD-1 mouse assessed as physical dependence by measuring number of jumps at 1.5 mg/kg, sc bid for 22 days followed by opioid antagonist naloxone injection on day 22 measured for 15 mins post last dose", "type": "organism-based", "settings": "in vivo, 0.25 h"}, "Mus musculus [2]": {"test_system": "Mus musculus", "experiment": "Ratio of ED50 for sc dosed CD-1 mouse administered twice daily at dosing intervals of 12 hrs for 29 days to ED50 for sc dosed CD-1 mouse measured 15 mins post dose", "type": "functional"}, "Mus musculus [3]": {"test_system": "Mus musculus", "experiment": "Potency index, ratio of morphine ED50 to compound ED50 in sc dosed CD-1 mouse", "type": "functional"}, "[4]": {"target": "T1, Kappa-type opioid receptor (Mus musculus, UniProt P33534)", "T1 sequence (P33534 whole entry)": "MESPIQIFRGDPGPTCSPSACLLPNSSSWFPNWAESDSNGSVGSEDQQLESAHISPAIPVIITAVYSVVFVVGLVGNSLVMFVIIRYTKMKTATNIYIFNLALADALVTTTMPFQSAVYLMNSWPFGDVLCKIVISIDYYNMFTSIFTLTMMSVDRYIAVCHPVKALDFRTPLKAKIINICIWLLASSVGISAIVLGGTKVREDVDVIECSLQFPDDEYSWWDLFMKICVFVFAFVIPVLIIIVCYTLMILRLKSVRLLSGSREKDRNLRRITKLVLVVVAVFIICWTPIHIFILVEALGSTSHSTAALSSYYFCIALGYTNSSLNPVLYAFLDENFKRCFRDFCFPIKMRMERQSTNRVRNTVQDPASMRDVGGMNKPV", "experiment": "Displacement of [125I]-IBNtxA from mouse kappa opioid receptor-1 expressed in CHO cell membranes incubated for 90 mins"}, "Mus musculus [5]": {"test_system": "Mus musculus", "experiment": "Antinociceptive activity in sc dosed CD-1 mouse assessed as increase in reaction time administered twice daily at dosing intervals of 12 hrs for 5 days by radiant heat tail flick assay", "type": "functional", "settings": "CD-1, sc"}, "Mus musculus [6]": {"test_system": "Mus musculus", "experiment": "Antinociceptive activity in sc dosed CD-1 mouse assessed as increase in AUC of reaction time administered twice daily at dosing intervals of 12 hrs for 29 days by radiant heat tail flick assay relative to morphine", "type": "functional"}, "Mus musculus [7]": {"test_system": "Mus musculus", "experiment": "Antinociceptive activity in po dosed CD-1 mouse assessed as increase in reaction time administered through gavage measured 15 mins post dose by radiant heat tail flick assay", "type": "functional", "settings": "CD-1, po, 0.25 h"}, "Mus musculus [8]": {"test_system": "Mus musculus", "experiment": "Antinociceptive activity in icv dosed CD-1 mouse assessed as increase in reaction time measured 15 mins post dose by radiant heat tail flick assay", "type": "functional"}, "[9]": {"target": "T2, Alpha-2A adrenergic receptor (Homo sapiens) (UniProt P08913)", "T2 sequence (whole entry)": "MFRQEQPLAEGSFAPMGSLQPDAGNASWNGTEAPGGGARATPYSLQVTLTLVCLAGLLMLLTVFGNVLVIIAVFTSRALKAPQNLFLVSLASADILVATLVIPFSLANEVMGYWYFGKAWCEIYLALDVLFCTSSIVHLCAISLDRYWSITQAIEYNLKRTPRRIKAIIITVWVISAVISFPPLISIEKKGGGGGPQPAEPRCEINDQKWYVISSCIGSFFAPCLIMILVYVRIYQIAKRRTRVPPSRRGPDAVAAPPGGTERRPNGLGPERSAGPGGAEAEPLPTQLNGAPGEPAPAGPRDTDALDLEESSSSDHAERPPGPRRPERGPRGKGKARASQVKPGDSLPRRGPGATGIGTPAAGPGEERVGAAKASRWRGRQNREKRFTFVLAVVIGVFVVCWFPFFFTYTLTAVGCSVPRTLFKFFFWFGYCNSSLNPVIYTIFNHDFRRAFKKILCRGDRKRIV", "experiment": "Displacement of [3H]rauwolscine from recombinant human adrenergic alpha2A receptor expressed in MDCK cell membrane after 90 mins by microbeta scintillation counting method"}, "[10]": {"experiment": "Toxicity in CD-1 mouse assessed as time for drug tolerance at 1.5 mg/kg, sc bid at dosing intervals of 12 hrs", "type": "organism-based", "settings": "in vivo"}, "[11]": {"experiment": "Toxicity in C57BL/6 mouse assessed as decrease in respiratory rate at 1.2 mg/kg, sc measured at 15 to 35 mins post dose", "type": "organism-based", "settings": "in vivo"}, "Mus musculus [12]": {"test_system": "Mus musculus", "experiment": "Antinociceptive activity in CD-1 mouse assessed as increase in reaction time at 1.5 mg/kg, sc measured 15 mins post dose in presence of kappa opioid receptor antagonist norBNI by radiant heat tail flick assay", "type": "functional, organism-based"}, "[13]": {"target": "T1, Kappa-type opioid receptor", "experiment": "Antagonist activity at mouse kappa opioid receptor-1 expressed in CHO cell membranes assessed as inhibition of U50,488H-induced [35S]GTPgammaS binding incubated for 60 mins by scintillation spectroscopic analysis", "type": "functional"}, "Mu-type opioid receptor [14]": {"target": "Mu-type opioid receptor (Mus musculus, UniProt P42866)", "sequence (P42866 whole entry)": "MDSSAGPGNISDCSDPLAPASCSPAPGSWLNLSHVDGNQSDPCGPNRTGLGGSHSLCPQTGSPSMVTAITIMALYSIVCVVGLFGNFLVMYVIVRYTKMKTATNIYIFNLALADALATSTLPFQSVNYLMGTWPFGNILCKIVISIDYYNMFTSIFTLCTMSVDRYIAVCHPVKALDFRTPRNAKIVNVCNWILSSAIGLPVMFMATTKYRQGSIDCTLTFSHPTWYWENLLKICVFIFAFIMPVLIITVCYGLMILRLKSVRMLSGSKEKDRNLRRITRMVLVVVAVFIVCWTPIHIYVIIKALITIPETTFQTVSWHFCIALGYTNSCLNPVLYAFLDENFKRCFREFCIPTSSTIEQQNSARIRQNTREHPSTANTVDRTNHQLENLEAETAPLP", "experiment": "Agonist activity at mouse mu opioid receptor-1 expressed in CHO cell membranes assessed as [35S]GTPgammaS binding incubated for 60 mins by scintillation spectroscopic analysis", "type": "functional"}, "[15]": {"target": "Delta-type opioid receptor (Mus musculus, UniProt P32300)", "sequence (P32300 whole entry)": "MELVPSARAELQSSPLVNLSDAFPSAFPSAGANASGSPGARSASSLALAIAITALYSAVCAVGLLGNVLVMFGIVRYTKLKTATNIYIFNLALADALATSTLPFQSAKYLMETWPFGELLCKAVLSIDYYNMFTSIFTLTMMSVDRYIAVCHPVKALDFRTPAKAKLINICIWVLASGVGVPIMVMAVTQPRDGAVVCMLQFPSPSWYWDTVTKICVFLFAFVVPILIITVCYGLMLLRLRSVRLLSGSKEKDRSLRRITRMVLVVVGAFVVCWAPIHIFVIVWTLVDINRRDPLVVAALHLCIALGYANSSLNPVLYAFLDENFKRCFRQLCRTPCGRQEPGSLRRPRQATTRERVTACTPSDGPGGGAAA", "experiment": "Displacement of [125I]-IBNtxA from mouse delta opioid receptor-1 expressed in CHO cell membranes incubated for 90 mins"}, "[16]": {"experiment": "Toxicity in CD-1 mouse assessed as physical dependence by measuring number of jumps at 1.5 mg/kg, sc bid for 5 days followed by opioid antagonist naloxone injection on day 5 measured for 15 mins post last dose", "type": "organism-based", "settings": "in vivo, 0.25 h"}, "Mu-type opioid receptor [17]": {"target": "Mu-type opioid receptor (Homo sapiens, UniProt P35372)", "sequence (P35372 whole entry)": "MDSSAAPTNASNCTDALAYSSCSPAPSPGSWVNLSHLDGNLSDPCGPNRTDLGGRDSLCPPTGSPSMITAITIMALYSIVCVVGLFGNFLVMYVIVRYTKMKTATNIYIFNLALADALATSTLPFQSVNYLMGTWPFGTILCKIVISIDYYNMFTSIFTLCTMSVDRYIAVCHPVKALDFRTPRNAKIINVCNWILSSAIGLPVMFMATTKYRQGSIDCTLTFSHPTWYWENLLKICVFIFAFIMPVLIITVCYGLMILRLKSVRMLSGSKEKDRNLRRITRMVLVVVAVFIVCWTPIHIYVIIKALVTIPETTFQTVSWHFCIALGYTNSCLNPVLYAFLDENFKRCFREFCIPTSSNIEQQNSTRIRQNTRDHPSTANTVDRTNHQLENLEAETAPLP", "experiment": "Inhibition of DAMGO-induced beta-arrestin-2 recruitment at mu opioid receptor-1 (unknown origin) expressed in CHO cells preincubated for 30 mins followed by DAMGO addition measured after 90 mins by beta-galactosidase complementation assay", "type": "cell-based"}, "Mus musculus [18]": {"test_system": "Mus musculus", "experiment": "Antinociceptive activity in CD-1 mouse assessed as increase in reaction time at 1.5 mg/kg, sc measured 15 mins post dose in presence of mu opioid receptor antagonist beta-FNA by radiant heat tail flick assay", "type": "functional, organism-based"}}, "note": "Active and inactive are the calls of the source. No cut-off for these calls is given here."}
{"smiles": "CC[C@@H]1CN2CC[C@]3(Nc4cccc(OC)c4C3=O)[C@@H]2C[C@@H]1/C(=C\\OC)C(=O)OC", "values": [{"measurement": "Activity", "setting": "[1]", "value": 13}, {"measurement": "Ratio ED50", "setting": "Mus musculus [2]", "value": 6}, {"measurement": "Ratio ED50", "setting": "Mus musculus [3]", "value": 3}, {"measurement": "Ki", "setting": "[4]", "value": 0.024, "unit": "µM"}, {"measurement": "ED50", "setting": "Mus musculus [5]", "value": 1.1, "unit": "mg/kg"}, {"measurement": "fold change (FC)", "setting": "Mus musculus [6]", "value": 6}, {"measurement": "ED50", "setting": "Mus musculus [7]", "value": 7.5, "unit": "mg/kg"}, {"measurement": "ED50", "setting": "Mus musculus [8]", "value": 0.38, "unit": "µg"}, {"measurement": "inhibition", "setting": "[9]", "value": "Active"}, {"measurement": "Time", "setting": "[10]", "value": 29, "unit": "days"}, {"measurement": "Activity", "setting": "[11]", "value": "Non-Toxic"}, {"measurement": "Activity", "setting": "Mus musculus [12]", "value": "Active"}, {"measurement": "IC50", "setting": "[13]", "value": 0.031, "unit": "µM"}, {"measurement": "EC50", "setting": "Mu-type opioid receptor [14]", "value": 0.0017, "unit": "µM"}, {"measurement": "Ki", "setting": "[15]", "value": 0.003, "unit": "µM"}, {"measurement": "Activity", "setting": "[16]", "value": 12}, {"measurement": "IC50", "setting": "Mu-type opioid receptor [17]", "value": 0.034, "unit": "µM"}, {"measurement": "inhibition", "setting": "Mu-type opioid receptor [17]", "value": "Dose-dependent effect"}, {"measurement": "Activity", "setting": "Mus musculus [18]", "value": "inactive"}]}
